The record followed here is paper PMC3397464, “Woodylides A–C, New Cytotoxic Linear Polyketides from the South China Sea Sponge Plakortis simplex” (Marine Drugs, 2012).

Structures are written as SMILES. In brackets after ≈: the same amount, converted by molar mass.

Data set [1] has as its system Cryptococcus neoformans (ATCC 90113). The data set is described as follows: Antifungal evaluation, IC50 against C. neoformans. Conditions: RPMI 1640; for IC50: Cryptococcus neoformans, ATCC90113, incubated 70–74 h at 35 °C. Format: cell-based. Here is the method:
(§1) The three new polyketides 1–3 were evaluated for antifungal activity against Cryptococcus neoformans (ATCC 90113), Candida albicans (Y0109), Trichophyton rubrum (Cmccftla) and Microsporum gypseum (Cmccfmza) (Table 2), for in vitro cytotoxic activity against human cancer cell lines, HCT-116 (colon cancer), A549 (lung carcinoma), HeLa (cervical cancer), QGY-7703 (hepatocarcinoma), and MDA231 (breast adenocarcinoma) (Table 3), and protein tyrosine phosphatase 1B (PTP1B) inhibitory activity (Table 3). […] Cytotoxicity of compound 3 against A549, HeLa, QGY-7703, and MDA231 cell lines was weaker when compared to that of 1. […] The PTP1B inhibitors are recognized as potential therapeutic agents for the treatment of type II diabetes and obesity.
Optical rotations were determined with a Perkin-Elmer 341 polarimeter with 1 mm cell. IR spectra were recorded on a Bruker vector 22 spectrometer with KBr pellets. The NMR experiments were conducted on Bruker AVANCE-600 and Bruker AMX-500 instruments. HRESIMS and ESIMS were obtained on a Q-Tof micro YA019 mass spectrometer. In antifungal evaluation, IC50 values were calculated on XLfit 4.2 software (IDBS: Alameda, CA, USA, 2005). Reversed-phase HPLC was performed on YMC-Pack Pro C18 RS (5 μm) columns with a Waters 1525/2998 liquid chromatograph. Column chromatographies were carried out on silica gel 60 (200–300 mesh; Yantai, China), Sephadex LH-20 (Amersham Biosciences). TLC was carried out using HSGF 254 plates and visualized by spraying with anisaldehyde-H2SO4 reagent.
(§2) Antifungal IC50 values of woodylides A–C against C. neoformans were calculated as described by Ikhlas A. Khan et al.. Amphotericin B was used as the positive control. Minimal Inhibition Concentration (MIC) values of woodylides A–C were determined against three indicators (C. albicans, T. rubrum, and M. gypseum), following the […] (NCCLS) methods. Fluconazole was used as the positive control. Briefly, samples (dissolved in DMSO) were serially diluted in 20% DMSO/saline and transferred (10 µL) in duplicate to 96 well flat bottom microplates. Bacterial strains were grown aerobically at 30 °C in SDA for 16–20 h. A set of different concentrations of compounds 1–3 prepared in RPMI 1640 were next inoculated with the microorganisms and incubated 70–74 h for C. neoformans at 35 °C, 46 h for C. albicans at 35 °C, and 4–7 days for T. rubrum and M. gypseum at 30 °C. The IC50 values were calculated by using the fit model 201 of XLfit 4.2 software.

Data set [2] has as its system Candida albicans (Y0109). The data set is described as follows: Antifungal evaluation, MIC (NCCLS broth dilution). It counts as cell-based. The settings on record: 46 h at 35 °C, range 1.25–640 μg/mL. Here is the method: as §1, §2
Data set [3] deals with Microsporum gypseum (Cmccfmza). As to the kind of experiment: Antifungal evaluation, MIC (NCCLS broth dilution). Conditions: Nannizzia gypsea, 4–7 days at 30 °C, range 1.25–640 μg/mL. It counts as cell-based. On the procedure: as §1, §2
Data set [4] deals with Trichophyton rubrum (Cmccftla). As to the kind of experiment: Antifungal evaluation, MIC (NCCLS broth dilution). Format: cell-based. The settings on record: 4–7 days at 30 °C, range 1.25–640 μg/mL, read-out: Antifungal Activity T. rubrum, MIC. Here is the method:
as §1, §2

Data set [5] in a line: Cytotoxicity MTT assay. It counts as cell-based. The settings on record: human, 48 h treatment, 1 to 100 μg/mL. Here is the method: (§3) Cytotoxicity of compound 3 against A549, HeLa, QGY-7703, and MDA231 cell lines was weaker when compared to that of 1. […] The PTP1B inhibitors are recognized as potential therapeutic agents for the treatment of type II diabetes and obesity. The cytotoxicity of compounds 1-3 against HCT-116, A549, HeLa, QGY-7703, and MDA231 cell lines was evaluated by the MTT assay as described in a previous report. Briefly, compounds were solubilized in DMSO with the working concentration of test substances ranging from 1 to 100 μg/mL. Cells at the exponential growth phase were harvested and seeded into 96-well plates. After incubation for 24 h, the cells were treated with various concentrations of test substances for 48 h and then incubated with 1 mg/mL MTT at 37 °C for 4 h, followed by dissolving in DMSO. The produced formazan was measured by the absorbance at 570 nm on a microplate reader. The IC50 values were calculated on the basis of percentage inhibition using the linear regression method.

Data set [6] can be described thus: Cytotoxicity MTT assay. It counts as cell-based, human. The settings on record: human, HeLa cells (cervical cancer), 48 h treatment, 1 to 100 μg/mL. On the procedure: as §3
Data set [7] relates to HeLa (cervical cancer). The data set is described as follows: Cytotoxicity MTT assay. It counts as cell-based, human. The settings on record: 48 h treatment, 1 to 100 μg/mL. Here is the method: as §3
For data set [8], the target named is T1, protein tyrosine phosphatase 1B (PTP1B) (Homo sapiens, UniProt P18031).
T1 construct: The enzymatic activities of the PTP1B catalytic domain were determined at 30 °C by monitoring the hydrolysis of pNPP
T1 sequence (P18031 3-277 limits assumed): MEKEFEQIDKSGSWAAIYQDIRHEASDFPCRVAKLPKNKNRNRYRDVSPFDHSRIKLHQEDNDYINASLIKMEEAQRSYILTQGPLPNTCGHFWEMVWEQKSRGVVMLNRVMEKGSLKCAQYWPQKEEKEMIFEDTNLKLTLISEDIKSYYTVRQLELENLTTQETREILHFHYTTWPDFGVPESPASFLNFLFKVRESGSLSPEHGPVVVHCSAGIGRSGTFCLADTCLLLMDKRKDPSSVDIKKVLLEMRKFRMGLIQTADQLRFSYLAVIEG
The data set is described as follows: PTP1B inhibitory assay (pNPP hydrolysis). It counts as biochemical. The settings on record: recombinant PTP1B catalytic domain, 30 °C, pH 6.5. On the procedure: The enzymatic activities of the PTP1B catalytic domain were determined at 30 °C by monitoring the hydrolysis of pNPP.

Turning to `C[C@@H]1[C@H](O)[C@@H](C)/C=C/C=C/C=C/C=C/C=C/C=C/C=C/[C@H](O[C@@H]2O[C@H](C)[C@@H](O)[C@H](N)[C@@H]2O)C[C@@H]2O[C@](O)(C[C@@H](O)C[C@@H](O)[C@H](O)CC[C@@H](O)C[C@@H](O)CC(=O)O[C@H]1C)C[C@H](O)[C@H]2C(=O)O` [Amphotericin B, reference compound], the IC50 in data set [1] is 0.35 µg/mL (≈ 0.379 µM).

As for `CCCCC(C)CC(O)(/C=C(/CC)[C@@H](O)CC(=O)OC)CC` (some centres unmarked) [Compound 1, Woodylide A], the IC50 in data set [1] came to 3.67 µg/mL (≈ 11.7 µM). Moreover, the MIC in data set [2], in data set [3] and in data set [4] was 32 µg/mL (≈ 102 µM) each time. The values for the IC50 at 48 h in data set [5] (A549 cells (lung carcinoma)), in data set [5] (QGY-7703 cells (hepatocarcinoma)) and in data set [6] were 37.8 µg/mL (≈ 120 µM), 25.8 µg/mL (≈ 82 µM) and 11.2 µg/mL (≈ 35.6 µM), respectively. The “Cytotoxicity IC50 HeLa” value in data set [7] came out at 11.22 µg/mL.

On to `CCCCC(CC)CC(O)(/C=C(/CC)[C@@H](O)CC(=O)OC)CC` (some centres unmarked) [Compound 2, Woodylide B], for which, in data set [1] (incubated 70–74 h at 35 °C), the “Antifungal Activity C. neoformans, IC50” value was “inactive”.

For `CCCCC(C)CC(O)(C=C(CC)C(O)CC(=O)O)CC` (centres unmarked) [Compound 3, Woodylide C], the IC50 in data set [1] was 10.8 µg/mL (≈ 36.1 µM); in data set [8], 15.6 µM. Also, the MIC in data set [3] and in data set [4] was 32 µg/mL (≈ 107 µM) each time. This compound also yielded an IC50 at 48 h in data set [5] (HCT-116 cells (colon cancer)) of 9.4 µg/mL (≈ 31.3 µM).

As for `OC(Cn1cncn1)(Cn1cncn1)c1ccc(F)cc1F` [Fluconazole, reference compound], the MIC in data set [3] turned out to be 8 µg/mL (≈ 26.1 µM); in data set [4], 2 µg/mL (≈ 6.53 µM).
